# Source: US8143296B2, “Thiazole-based compound and inhibitor of T-type calcium channel containing the same” (Korea Institute of Science and Technology, priority 2006, dated 2012)
# Counter-ions that a name gives are not always drawn.
# Target: T1, α1G T-type calcium channel (Homo sapiens, UniProt O43497)
# T1 construct: host or cells: HEK293
# Assay: Assay for % inhibiting activity against T-type calcium channel using FDSS6000
# Type: cell-based
# Conditions: 10 μM; HEK293 cells expressing α1G; Table 3 (Chemical Formula 2 series); hydrochloride
# Method: In the present invention, in order to search an efficient inhibitor against T-type calcium channel, a primary assay for T-type calcium channel inhibiting activity was conducted by a high-efficient assay using FDSS6000, wherein mammal HEK293 cell lines (originated from human kidney carcinoma cells) which specifically expresses α1G of T-type calcium channel was used for primary assay. Through the primary assay, compounds which show meaningful inhibition effects were selected. The selected compounds were used in a second assay for T-type calcium channel inhibiting activity using electrophysiological whole cell patch clamp method, wherein mammal HEK293 cell lines (originated from human kidney carcinoma cells) which specifically expresses α1G of T-type calcium channel was used for the second assay.
# At 12-24 hours before being used for this assay, cells of HEK293 cell line (α1G cell line: KCTC 10519BP, Korean Collection for Type Cultures), which stably express α1G T-type calcium channel and Kir2.1, were sub-cultured in a poly-L-lysine treated 96-well plate with the density of 4×10^4 per a well using a 96-well cell dispenser (Titertek). On the of assay, the 96-well plate to which the cells were attached were washed three times with HEPES buffer solution (150 mM of NaCl, 5 mM of KCl, 1 mM of MgCl2, 2 mM of CaCl2, 10 mM of HEPES, 10 mM of glucose; pH 7.4) using a 96-well plate automatic washing device (Bio Tek), then reacted with HEPES buffer solution containing 5 μM fluo-3/AM and 0.001% Pluronic F-127 under room temperature for 1 hour, to label with fluorescent dye, and then further washed two times with HEPES buffer solution.
# Thereafter, at 10 minutes before the measurement using device FDSS6000, a washing with HEPES buffer solution containing 10 mM CaCl2 was conducted once more, and the final volume was adjusted to 81 μl. Besides the above 96-well plate containing the cells, additional two drug 96-well plates were provided, wherein the 96-well plates contain inhibiting drug and KCl (final concentration: 75 mM) for activating T-type calcium channel, respectively. Since most of cell-based HTS devices are equipped with a liquid application system for injection of drug, but have no liquid sucking system, the inhibiting drug to be tested and KCl were respectively provided at the five-times higher concentration in 10 mM CaCl2 HEPES buffer solution at the amount of 27 μl, diluted five-times at the final cell plate volume of 135 μl, and then used in this test. The concrete method of measurement using FDSS6000 was as follows: After recording the reference value of 20 seconds, the change of intracellular Ca^2+ concentration which induced by treatment of the inhibiting drug to be tested for 75 seconds followed by administration of KCl was measured, wherein the percentage (%) inhibition effect of the test drug, through estimating the area of ratio value of 340/380 in the control without treatment of the test drug as 100%. As a reference drug, mibefradil was used.
# For accurate calcium-imagination, the light source of 4 xenon lamps in FDSS6000 were radiated to make the cells exposed selectively to the excitation wavelength (340 nm and 380 nm) by computer-controlled filter wheel. Data was obtained at interval of each 1.23 second. The emitter fluorescence light inflowed through long-pass filter was obtained as an average 340/380 ratio value for each well in the 96-wells by using CCD camera and digital fluorescence analyzer in FDSS6000. All image data and analyses were obtained by using FDSS6000-exclusive program provide from Hamamatsu Photonics.
# T1 sequence (O43497 whole entry): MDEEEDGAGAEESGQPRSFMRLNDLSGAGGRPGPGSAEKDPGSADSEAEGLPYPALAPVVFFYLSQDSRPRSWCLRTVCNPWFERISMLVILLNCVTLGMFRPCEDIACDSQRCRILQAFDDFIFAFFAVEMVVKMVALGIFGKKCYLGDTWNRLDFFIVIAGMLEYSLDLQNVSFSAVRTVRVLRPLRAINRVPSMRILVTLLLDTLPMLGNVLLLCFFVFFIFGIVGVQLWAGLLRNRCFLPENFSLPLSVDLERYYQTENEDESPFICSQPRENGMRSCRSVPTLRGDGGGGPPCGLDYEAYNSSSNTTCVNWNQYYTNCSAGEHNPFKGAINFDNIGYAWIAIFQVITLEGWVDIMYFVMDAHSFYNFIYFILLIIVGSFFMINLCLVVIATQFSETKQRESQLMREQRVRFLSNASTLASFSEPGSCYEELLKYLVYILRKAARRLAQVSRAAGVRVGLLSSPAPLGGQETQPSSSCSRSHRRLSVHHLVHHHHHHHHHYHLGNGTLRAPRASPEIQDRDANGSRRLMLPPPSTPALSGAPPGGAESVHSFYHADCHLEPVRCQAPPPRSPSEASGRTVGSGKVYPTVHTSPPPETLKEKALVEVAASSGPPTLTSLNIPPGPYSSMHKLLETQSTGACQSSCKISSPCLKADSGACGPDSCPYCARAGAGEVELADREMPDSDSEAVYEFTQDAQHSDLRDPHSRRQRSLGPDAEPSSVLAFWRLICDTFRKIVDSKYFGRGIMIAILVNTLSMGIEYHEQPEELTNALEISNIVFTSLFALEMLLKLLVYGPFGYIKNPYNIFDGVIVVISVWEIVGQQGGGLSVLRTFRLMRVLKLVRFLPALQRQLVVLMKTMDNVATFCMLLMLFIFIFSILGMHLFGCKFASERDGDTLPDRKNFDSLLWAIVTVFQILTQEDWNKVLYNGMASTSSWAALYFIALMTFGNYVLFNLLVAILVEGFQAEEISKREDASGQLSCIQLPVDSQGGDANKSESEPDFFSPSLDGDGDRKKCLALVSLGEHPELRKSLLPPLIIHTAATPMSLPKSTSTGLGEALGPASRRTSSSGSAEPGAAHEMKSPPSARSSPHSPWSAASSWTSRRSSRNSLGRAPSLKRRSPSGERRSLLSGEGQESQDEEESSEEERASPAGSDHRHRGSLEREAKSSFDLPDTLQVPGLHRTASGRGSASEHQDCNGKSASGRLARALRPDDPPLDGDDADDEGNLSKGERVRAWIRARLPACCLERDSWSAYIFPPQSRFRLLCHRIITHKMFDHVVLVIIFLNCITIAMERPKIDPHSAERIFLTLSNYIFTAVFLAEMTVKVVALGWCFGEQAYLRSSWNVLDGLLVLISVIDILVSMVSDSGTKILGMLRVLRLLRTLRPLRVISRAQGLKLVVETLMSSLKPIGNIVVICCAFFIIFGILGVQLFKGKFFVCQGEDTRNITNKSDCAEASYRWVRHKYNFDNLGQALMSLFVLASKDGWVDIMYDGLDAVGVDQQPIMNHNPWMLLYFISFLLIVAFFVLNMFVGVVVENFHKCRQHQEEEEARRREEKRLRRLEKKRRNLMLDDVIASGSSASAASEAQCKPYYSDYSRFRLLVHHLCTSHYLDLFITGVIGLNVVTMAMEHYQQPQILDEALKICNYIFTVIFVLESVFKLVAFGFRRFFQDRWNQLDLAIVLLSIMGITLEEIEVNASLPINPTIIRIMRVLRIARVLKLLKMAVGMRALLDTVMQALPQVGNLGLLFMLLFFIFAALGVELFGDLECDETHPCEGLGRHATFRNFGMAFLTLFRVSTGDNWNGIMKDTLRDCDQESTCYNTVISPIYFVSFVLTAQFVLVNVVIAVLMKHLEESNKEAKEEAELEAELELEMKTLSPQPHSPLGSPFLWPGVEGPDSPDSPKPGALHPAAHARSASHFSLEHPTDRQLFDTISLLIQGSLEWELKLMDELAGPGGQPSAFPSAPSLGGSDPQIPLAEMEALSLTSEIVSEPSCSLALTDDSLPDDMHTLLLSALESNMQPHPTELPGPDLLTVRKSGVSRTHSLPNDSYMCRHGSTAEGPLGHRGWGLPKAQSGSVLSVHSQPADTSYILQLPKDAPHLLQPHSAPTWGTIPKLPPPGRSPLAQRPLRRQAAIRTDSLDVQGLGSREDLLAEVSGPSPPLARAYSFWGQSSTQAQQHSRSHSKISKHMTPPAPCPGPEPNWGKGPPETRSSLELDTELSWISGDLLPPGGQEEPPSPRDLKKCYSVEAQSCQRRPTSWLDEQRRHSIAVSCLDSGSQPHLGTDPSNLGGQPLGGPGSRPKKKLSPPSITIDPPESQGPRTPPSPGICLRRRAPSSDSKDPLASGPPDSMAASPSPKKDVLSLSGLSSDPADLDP
row,"% Inhibition [α1G, 10 μM) using FDSS6000 [%]",Structure (SMILES)
1,4.5,"CCCCCCc1ccc(NC(=O)Cc2csc(N=C(N)N)n2)cc1.Cl [KHG23386, 2-(2-(diaminomethyleneamino)thiazole-4-yl)-N-(4-hexylphenyl)acetamide hydrochloride]"
2,3.4,"COc1ccc(NC(=O)Cc2csc(N=C(N)N)n2)cc1F.Cl [KHG23399, 2-(2-(diaminomethyleneamino)thiazole-4-yl)-N-(3-fluoro-4-methoxyphenyl)acetamide hydrochloride]"
3,14.2,"Cc1ccc(NC(=O)Cc2csc(N=C(N)N)n2)cc1Cl.Cl [KHG23397, N-(3-chloro-4-methylphenyl)-2-(2-(diaminomethyleneamino)thiazole-4-yl)acetamide hydrochloride]"

# Same assay, conditions: HEK293, 10 μM; HEK293 cells expressing α1G; Table 3 (Chemical Formula 2 series)
row,Structure (SMILES),inhibition at 10 µM [%]
1,"CCCCOc1ccc(NC(=O)Cc2csc(N=C(N)N)n2)cc1 [KHG23384, N-(4-butoxyphenyl)-2-(2-(diaminomethyleneamino)thiazole-4-yl)acetamide hydrochloride]",6.1
2,"CCCCCCc1ccc(NC(=O)Cc2csc(N=C(N)N)n2)cc1 [KHG23383, 2-(2-(diaminomethyleneamino)thiazole-4-yl)-N-(4-hexylphenyl)acetamide hydrochloride]",5.7
3,"NC(N)=Nc1nc(CC(=O)Nc2c(Cl)c(Cl)cc(Cl)c2Cl)cs1 [KHG23395, 2-(2-(diaminomethyleneamino)thiazole-4-yl)-N-(2,3,5,6-tetrachlorophenyl)acetamide hydrochloride]",2.7
4,"NC(N)=Nc1nc(CC(=O)Nc2ccc([N+](=O)[O-])cc2)cs1 [KHG23380, 2-(2-(diaminomethyleneamino)thiazole-4-yl)-N-(4-nitrophenyl)acetamide hydrochloride]",11.4
5,"NC(N)=Nc1nc(CC(=O)Nc2ccc(F)c(F)c2F)cs1 [KHG23392, 2-(2-(diaminomethyleneamino)thiazole-4-yl)-N-(2,3,4-trifluorophenyl)acetamide hydrochloride]",22.7
6,"CCOC(=O)c1cccc(NC(=O)Cc2csc(N=C(N)N)n2)c1 [KHG23382, ethyl 3-(2-(2-(diaminomethyleneamino)thiazole-4-yl)acetamido)benzoate hydrochloride]",24
7,"N#CCc1ccc(NC(=O)Cc2csc(N=C(N)N)n2)cc1 [KHG23387, N-(4-(cyanomethyl)phenyl)-2-(2-(diaminomethyleneamino)thiazole-4-yl)acetamide hydrochloride]",3.2
8,"NC(N)=Nc1nc(CC(=O)Nc2cc(C(F)(F)F)cc(C(F)(F)F)c2)cs1 [KHG23394, N-(3,5-bis(trifluoromethyl)phenyl)-2-(2-(diaminomethyleneamino)thiazole-4-yl)acetamide hydrochloride]",41.5

# The next lines start with the values.
row,inhibition at 10 µM [%],Structure (SMILES)
1,25.4,"NC(N)=Nc1nc(CC(=O)Nc2ccc(Oc3ccccc3)cc2)cs1 [KHG23389, 2-(2-(diaminomethyleneamino)thiazole-4-yl)-N-(4-phenoxyphenyl)acetamide hydrochloride]"
2,5.9,"CCOC(=O)c1ccc(NC(=O)Cc2csc(N=C(N)N)n2)cc1 [KHG23385, ethyl 4-(2-(2-(diaminomethyleneamino)thiazole-4-yl)acetamido)benzoate hydrochloride]"
3,14.7,"CC(C)c1ccc(NC(=O)Cc2csc(N=C(N)N)n2)cc1 [KHG23379, 2-(2-(diaminomethyleneamino)thiazole-4-yl)-N-(4-isopropylphenyl)acetamide hydrochloride]"

# Same assay, conditions: HEK293, 10 μM; HEK293 cells expressing α1G; Table 4 (Chemical Formula 3 series)
row,inhibition at 10 µM [%],Structure (SMILES)
1,12.9,"NC(N)=Nc1nc(-c2cc(C(F)(F)F)cc(C(F)(F)F)c2)cs1 [KHG24392, 2-(4-(3,5-bis(trifluoromethyl)phenyl)thiazole-2-yl)guanidine hydrobromide]"
2,16.2,"Cc1ccc(-c2csc(N=C(N)N)n2)cc1 [KHG24040, 2-(4-p-tolylthiazole-2-yl)guanidine hydrobromide]"
3,13.3,"COc1ccc(-c2csc(N=C(N)N)n2)cc1 [KHG24041, 2-(4-(4-methoxyphenyl)thiazole-2-yl)guanidine hydrobromide]"
